Marks after values point to notes of the source that are not given here.
Test: logP determination via retention times, calibrated with unbranched alkan-2-ones
Format: physicochemical
Conditions: HPLC on reversed-phase C 18, EEC Directive 79/831 Annex V.A8; method *: 40° C., 0.1% aqueous formic acid and acetonitrile, linear gradient 10% to 95% acetonitrile

| logP | Structure (SMILES) |
| --- | --- |
| 2.18* | CCOC(=O)Cc1ccc(Nc2ncc(Br)c(NCC3CC3)n2)cc1 [compound 486] |
| 1.48* | CSc1cccc(Nc2ncc(C)c(NC3CC3)n2)c1 [compound 497] |
| 1.93* | CC(C)(C)NC(=O)Cc1cccc(Nc2ncc(Cl)c(NCC3CC3)n2)c1 [compound 561] |
| 2.64* | CCCOc1cccc(Nc2ncc(Cl)c(NC3CC3)n2)c1 [compound 531] |
| 1.99* | CC(C)(CF)C(=O)Nc1cccc(Nc2ncc(Br)c(NCC3CC3)n2)c1 [compound 467] |
| 2.33* | CC(C)(C)OC(=O)Nc1cccc(Nc2ncc(Cl)c(NCC3CC3)n2)c1 [compound 524] |
| 1.27* | O=C1NC(=O)C(c2ccc(Nc3ncc(Cl)c(NCC4CC4)n3)cc2)N1 (stereo not drawn) [compound 512] |

Same assay, conditions: HPLC on reversed-phase C 18, method **: 43° C.; 0.1% aqueous phosphoric acid and acetonitrile; linear gradient 10% to 95% acetonitrile

| logP | Structure (SMILES) |
| --- | --- |
| 2.71** | COCc1cccc(Nc2ncc(Cl)c(N(C)CC3CC3)n2)c1 [compound 965] |
| 3.6** | CSc1cccc(Nc2ncc(Cl)c(N(C)CC3CC3)n2)c1 [compound 968] |
| 1.99** | COC(=O)Nc1ccc(Nc2ncc(Cl)c(N(C)CC3CC3)n2)cc1 [compound 970] |

Same assay, conditions: HPLC on reversed-phase C18, method **: 43° C.; mobile phase 0.1% aqueous phosphoric acid and acetonitrile; linear gradient 10% to 95% acetonitrile

| logP | Structure (SMILES) |
| --- | --- |
| 1.78** | CC(C)NS(=O)(=O)Cc1cccc(Nc2ncc(Cl)c(NC3CC3)n2)c1 [compound 325] |

Same assay, conditions: HPLC on reversed-phase C18, method *: 40° C., 0.1% aqueous formic acid and acetonitrile, linear gradient 10% to 95% acetonitrile

| logP | Structure (SMILES) |
| --- | --- |
| 1.44* | COC(=O)Nc1ccc(Nc2ncc(Cl)c(NCC3CC3)n2)cc1 [compound 153] |
| 1.5* | O=C1CCCN1c1ccc(Nc2ncc(Cl)c(NCC3CC3)n2)cc1 [compound 154] |
| 2.21* | Clc1cnc(Nc2ccccc2Cc2ccccc2)nc1NC1CC1 [compound 890] |
| 2.06* | CCOC(=O)Cc1ccc(Nc2ncc(Br)c(NC3CC3)n2)cc1 [compound 758] |
| 2.54* | O=C(N(c1ccc(Nc2ncc(Cl)c(NC3CC3)n2)cc1)C1CC1)C(F)(F)F [compound 120] |
| 3.76* | Clc1cnc(Nc2cccc(Cl)c2Cl)nc1NC1CC1 [compound 937] |
| 1.79* | OC(c1cccc(Nc2ncc(Cl)c(NC3CC3)n2)c1)C(F)(F)F (racemic) [compound 961] |
| 0.88* | Clc1cnc(Nc2cccc(C3CCNCC3)c2)nc1NC1CC1 [compound 727] |
| 1.75* | Clc1cnc(Nc2ccc3c(c2)OCO3)nc1NCC1CC1 [compound 695] |
| 3.49* | CCCSc1cccc(Nc2ncc(Br)c(NC3CC3)n2)c1 [compound 706] |
| 2.16* | CC(O)c1cccc(Nc2ncc(C(F)(F)F)c(NCC3CC3)n2)c1 (stereo not drawn) [compound 705] |
| 3.9* | FC(F)(F)Sc1ccc(Nc2ncc(Br)c(NC3CC3)n2)cc1 [compound 745] |
| 2.46* | Clc1cnc(Nc2ccccc2-c2ccccc2)nc1NC1CC1 [compound 900] |
| 1.24* | CCC(=O)Nc1ccc(Nc2ncc(Cl)c(NC3CC3)n2)cc1 [compound 711] |
| 2.39* | CC(C)(C)C(=O)Cc1ccc(Nc2ncc(Cl)c(NCC3CC3)n2)cc1 [compound 676] |
| 1.93* | CCC(=O)Nc1ccc(Nc2ncc(C(F)(F)F)c(NC3CC3)n2)cc1 [compound 710] |
| 2.53* | Fc1cccc(Nc2ncc(Cl)c(NC3CC3)n2)c1F [compound 946] |

Same assay, conditions: HPLC on reversed-phase C18, method *: 40° C.; mobile phase 0.1% aqueous formic acid and acetonitrile; linear gradient 10% to 95% acetonitrile

| logP | Structure (SMILES) |
| --- | --- |
| 2.13* | N#Cc1cccc(Nc2ncc(Cl)c(NC3CC3)n2)c1 [compound 278] |
| 2.26* | CCOC(=O)c1cccc(Nc2ncc(Cl)c(NC3CC3)n2)c1 [compound 292] |
| 1.47* | COc1ccc(Nc2ncc(Cl)c(NC3CC3)n2)cc1 [compound 284] |
| 3.66* | Clc1ccccc1C1(Nc2nc(Nc3ccccc3)ncc2Cl)CC1 [compound 318] |
| 3.48* | CSc1ccc(Nc2ncc(Cl)c(NC3CC3)n2)cc1C(F)(F)F [compound 322] |
| 1.59* | Clc1cnc(Nc2ccc3c(c2)OCO3)nc1NC1CC1 [compound 295] |
| 2.32* | CCC(=O)c1cccc(Nc2ncc(Br)c(NC3CC3)n2)c1 [compound 305] |
| 1.56* | CN(C)C(=O)c1ccc(Nc2ncc(Br)c(NC3CC3)n2)cc1 [compound 351] |

Same assay, conditions: HPLC on reversed-phase C18 column (EEC Directive 79/831 Annex V.A8); method *: 40° C.; 0.1% aqueous formic acid and acetonitrile; linear gradient 10% to 95% acetonitrile

| logP | Structure (SMILES) |
| --- | --- |
| 1.09* | Cc1cc(O)ccc1Nc1ncc(Cl)c(NC2CC2)n1 [compound 177] |
| 1.57* | CC1COC(=O)N1c1cccc(Nc2ncc(Cl)c(NC3CC3)n2)c1 (stereo not drawn) [compound 267] |
| 1.62* | O=S(=O)(Cc1cccc(Nc2ncc(Cl)c(NC3CC3)n2)c1)N1CCOCC1 [compound 261] |
| 2.34* | CCC(=O)c1ccc(Nc2ncc(Cl)c(NC3CC3)n2)cc1 [compound 257] |
| 1.86* | Oc1ccc(Nc2ncc(Cl)c(NC3CC3)n2)cc1C1CCCC1 [compound 187] |
| 1.44* | COC(=O)Nc1cccc(Nc2ncc(Cl)c(NC3CC3)n2)c1 [compound 193] |
| 1.41* | O=C1CCCc2ccc(Nc3ncc(Cl)c(NC4CC4)n3)cc2N1 [compound 181] |
| 3.81* | O=S(=O)(c1cccc(Nc2ncc(C(F)(F)F)c(NCC3CC3)n2)c1)N1CCCCC1 [compound 209] |
| 0.92* | Clc1cnc(Nc2ccc(NC3CC3)nc2)nc1NC1CC1 [compound 186] |

Same assay, conditions: HPLC reversed-phase C 18, EEC Directive 79/831 Annex V.A8; method **: 43° C., 0.1% aqueous phosphoric acid and acetonitrile, linear gradient 10% to 95% acetonitrile

| logP | Structure (SMILES) |
| --- | --- |
| 3.34** | Brc1cnc(Nc2cccc(I)c2)nc1NC1CC1 [compound 860] |

Same assay, conditions: HPLC reversed-phase C 18, EEC Directive 79/831 Annex V.A8; method *: 40° C., 0.1% aqueous formic acid and acetonitrile, linear gradient 10% to 95% acetonitrile

| logP | Structure (SMILES) |
| --- | --- |
| 1.51* | O=C1OCCN1c1cccc(Nc2ncc(Br)c(NC3CC3)n2)c1 [compound 842] |
| 2.42* | CC(=O)Cc1cccc(Nc2ncc(C(F)(F)F)c(NC3CC3)n2)c1 [compound 783] |
| 1.72* | CC(=O)CCc1cccc(Nc2ncc(Cl)c(NC3CC3)n2)c1 [compound 841] |
| 1.99* | COc1cc(CC#N)ccc1Nc1ncc(Br)c(NC2CC2)n1 [compound 818] |
| 3.78* | CC(C)(C)CSCc1ccc(Nc2ncc(Cl)c(NC3CC3)n2)cc1 [compound 823] |

Same assay, conditions: method **: HPLC reversed-phase C 18, 43° C., 0.1% aqueous phosphoric acid and acetonitrile, linear gradient 10% to 95% acetonitrile

| logP | Structure (SMILES) |
| --- | --- |
| 2.36** | CN(C)S(=O)(=O)c1ccc(Nc2ncc(Cl)c(NCC3CC3)n2)cc1 [compound 14] |
| 2.56** | O=S(=O)(Nc1ccccc1)c1ccc(Nc2ncc(Cl)c(NC3CC3)n2)cc1 [compound 27] |

Same assay, conditions: method **: HPLC reversed-phase C 18, temperature 43° C.; mobile phase 0.1% aqueous phosphoric acid and acetonitrile; linear gradient 10% to 95% acetonitrile

| logP | Structure (SMILES) |
| --- | --- |
| 3.35** | CSc1ccc(Nc2ncc(C(F)(F)F)c(NC3CC3)n2)cc1 [compound 653] |
| 1.32** | CC(C)NC(=O)Nc1ccc(Nc2ncc(Cl)c(NC3CC3)n2)cc1 [compound 632] |

Same assay, conditions: method **: HPLC, reversed-phase C 18, 43° C., mobile phase 0.1% aqueous phosphoric acid and acetonitrile, linear gradient from 10% to 95% acetonitrile

| logP | Structure (SMILES) |
| --- | --- |
| 2.77** | Clc1cnc(Nc2ccccc2)nc1NC1CC1c1ccccc1 (stereo not drawn) [compound 1014] |
| 3.37** | COc1ccc(CN(c2nc(Nc3cccc(N4CCCC4=O)c3)ncc2Cl)C2CC2)cc1 [compound 1045] |
| 2.37** | CC1(C)CC1Nc1nc(Nc2ccccc2)ncc1Cl (stereo not drawn) [compound 1027] |

Same assay, conditions: method *: HPLC reversed-phase C18, 40° C., 0.1% aqueous formic acid and acetonitrile, linear gradient 10% to 95% acetonitrile

| logP | Structure (SMILES) |
| --- | --- |
| 1.54* | CCC(=O)Nc1cccc(Nc2ncc(Br)c(NC3CC3)n2)c1 [compound 381] |
| 2.29* | CSc1ccc(Nc2ncc(Br)c(NCC3CC3)n2)cc1 [compound 453] |
| 1.79* | CCCNS(=O)(=O)Cc1ccc(Nc2ncc(Cl)c(NC3CC3)n2)cc1 [compound 371] |
| 1.98* | CC(C)(C)C(=O)Nc1cccc(Nc2ncc(Cl)c(NC3CC3)n2)c1 [Example 91] |
| 2.29* | O=S(=O)(c1cccc(Nc2ncc(Br)c(NCC3CC3)n2)c1)N1CCCCC1 [compound 454] |
| 1.99* | CC(C)(C)C(=O)Nc1ccc(Nc2ncc(Br)c(NCC3CC3)n2)cc1 [compound 450] |
| 2.72* | CCSc1cccc(Nc2ncc(Cl)c(NC3CC3)n2)c1 [compound 436] |

Same assay, conditions: method *: HPLC reversed-phase C 18, temperature 40° C.; mobile phase 0.1% aqueous formic acid and acetonitrile; linear gradient 10% to 95% acetonitrile

| logP | Structure (SMILES) |
| --- | --- |
| 3.1*; | CSc1ccc(Nc2ncc(C(F)(F)F)c(NC3CC3)n2)cc1 [compound 653] |
| 2.46* | CC(C)(C)C(=O)Nc1ccc(Nc2ncc(C(F)(F)F)c(NC3CC3)n2)cc1 [compound 647] |
| 1.23* | CC(=O)N(C)c1ccc(Nc2ncc(F)c(NC3CC3)n2)cc1 [compound 582] |
| 2.99* | COc1cc(Nc2ncc(C(F)(F)F)c(NC3CC3)n2)ccc1F [compound 635] |
| 1.58* | CN1CCN(c2cccc(Nc3ncc(Cl)c(NCC4CC4)n3)c2)C1=O [compound 618] |
| 2.92* | CSc1cccc(Nc2ncc(C#N)c(NC3CC3)n2)c1 [compound 609] |

Same assay, conditions: method *: HPLC, reversed-phase C 18, 40° C., mobile phase 0.1% aqueous formic acid and acetonitrile, linear gradient from 10% to 95% acetonitrile

| logP | Structure (SMILES) |
| --- | --- |
| 0.53* | O=C(c1cccc(Nc2ncc(Cl)c(NC3CC3)n2)c1)N1CCNCC1 [compound 1065] |
| 1.76* | COCc1cc(COC)cc(Nc2ncc(Cl)c(NC3CC3)n2)c1 [compound 1012] |
| 0.59* | CN1CCN(C(=O)c2cccc(Nc3ncc(Cl)c(NC4CC4)n3)c2)CC1 [compound 1059] |
| 3.13* | CCCCOc1cc(Nc2ncc(Cl)c(NC3CC3)n2)ccc1C [compound 991] |
| 2.37*; | CC1(C)CC1Nc1nc(Nc2ccccc2)ncc1Cl (stereo not drawn) [compound 1027] |

Same assay, conditions: pH 2.3; read-out: logP (pH2.3)

| chromatographic logP | Structure (SMILES) |
| --- | --- |
| 3.4 | FC(F)(F)c1cnc(Cl)nc1NCC1CC1 [2-chloro-N-(cyclopropylmethyl)-5-trifluoromethylpyrimidine-4-amine] |
| 2.51 | Clc1ncc(Cl)c(NCC2CC2)n1 [2,5-dichloro-N-(cyclopropylmethyl)pyrimidine-4-amine] |
